Results on 17 compounds are retold here after PMC4521925, “17β-Hydroxysteroid Dehydrogenase Type 2 Inhibition: Discovery of Selective and Metabolically Stable Compounds Inhibiting Both the Human Enzyme and Its Murine Ortholog” (PLoS ONE, 2015).

For series [1], the target named is T1, m17β-HSD2 (Mus musculus, UniProt P51658).
T1 construct: The microsomal fraction (m17β-HSD2) was obtained from mouse liver as described for h17β-HSD2; tissue Pharmacelsus GmbH (mouse livers); host or cells: mouse liver, microsomal fraction
T1 sequence (P51658 1-381): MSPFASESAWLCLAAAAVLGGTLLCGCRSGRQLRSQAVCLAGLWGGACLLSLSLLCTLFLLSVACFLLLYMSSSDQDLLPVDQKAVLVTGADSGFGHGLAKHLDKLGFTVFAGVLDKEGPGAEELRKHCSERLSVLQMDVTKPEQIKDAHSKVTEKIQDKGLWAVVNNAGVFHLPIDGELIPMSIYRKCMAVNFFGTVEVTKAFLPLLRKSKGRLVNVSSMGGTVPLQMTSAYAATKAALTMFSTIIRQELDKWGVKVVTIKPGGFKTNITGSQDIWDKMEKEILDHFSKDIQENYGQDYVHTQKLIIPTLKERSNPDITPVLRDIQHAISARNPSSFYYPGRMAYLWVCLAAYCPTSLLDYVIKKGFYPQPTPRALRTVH
The experiment in a line: Inhibition of m17β-HSD2 in cell-free assay. The series is classed as biochemical. The following applies: for % inh. at 1 μM m17β-HSD2: mouse liver microsomal fraction, substrate E2 [500 nM], cofactor NAD+ [1500 μM], Table 1; for inhibition at 1 µM: read-out: % inh. at 1 μM m17β-HSD2. The protocol: (§1) h17β-HSD2, h17β-HSD1, m17β-HSD2 and m17β-HSD1 cell-free assays were performed similarly, by incubating enzyme, tritiated substrate, cofactor and inhibitor, according to described procedures.
The microsomal fraction (m17β-HSD2) was obtained from mouse liver as described for h17β-HSD2. Inhibitory activities were evaluated by a method identical to the one described for the human enzyme.
(§2) Inhibitory activities were evaluated following an established method with minor modifications. Briefly, the enzyme preparation was incubated with NAD^+ [1500 μM] in the presence of potential inhibitors at 37C in a phosphate buffer (50 mM) supplemented with 20% of glycerol and EDTA 1mM. Inhibitor stock solutions were prepared in DMSO. Final concentration of DMSO was adjusted to 1% in all samples. […] After 20 min, the incubation was stopped with HgCl2 and the mixture was extracted with ether. After evaporation, the steroids were dissolved in acetonitrile/water (45:55). […] Detection and quantification of the steroids were performed using a radioflow detector (Berthold Technologies, Bad Wildbad). […] Each value was calculated from at least two independent experiments.

Series [2] deals with T2, h17β-HSD2 (Homo sapiens, UniProt P37059).
T2 sequence (P37059 1-387): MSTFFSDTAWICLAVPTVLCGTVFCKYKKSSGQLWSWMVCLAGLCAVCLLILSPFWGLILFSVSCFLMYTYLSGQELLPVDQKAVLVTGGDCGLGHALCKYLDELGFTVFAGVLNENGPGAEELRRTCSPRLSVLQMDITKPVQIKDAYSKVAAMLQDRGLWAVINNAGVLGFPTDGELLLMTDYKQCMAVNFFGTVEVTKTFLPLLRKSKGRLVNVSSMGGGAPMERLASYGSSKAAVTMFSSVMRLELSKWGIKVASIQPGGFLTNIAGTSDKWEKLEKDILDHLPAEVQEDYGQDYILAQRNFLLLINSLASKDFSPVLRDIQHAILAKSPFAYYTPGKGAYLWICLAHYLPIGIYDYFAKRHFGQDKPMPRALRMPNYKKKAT
Put plainly: Inhibition of h17β-HSD2 in cell-free assay. Set-up: from tissue; host or cells: human placenta, microsomal fraction. To be noted: read-out: % inh. at 1 μM h17β-HSD2. The series is classed as biochemical. How it is done: as §1
(§3) Cytosolic (h17β-HSD1) and microsomal (h17β-HSD2) fractions were obtained from human placenta according to previously described procedures. Fresh tissue was homogenized and the enzymes were separated from the mitochondria, cell membrane. Nucleus and other rests by fractional centrifugation at 1000 g, 10.000 g and 150.000 g. The pellet fraction containing the microsomal h17β-HSD2 was used for the determination of h17β-HSD2 inhibition, while h17β-HSD1 was obtained after precipitation with ammonium sulfate from the cytosolic fraction for use of testing of h17β-HSD1 inhibition. Aliquots containing h17β-HSD1 or h17β-HSD2 were stored frozen.
as §2

Series [3] concerns the target T3, h17β-HSD1 (Homo sapiens, UniProt P14061).
T3 construct: h17β-HSD1 was obtained after precipitation with ammonium sulfate from the cytosolic fraction; from tissue; host or cells: human placenta, cytosolic fraction
T3 sequence (P14061 1-328): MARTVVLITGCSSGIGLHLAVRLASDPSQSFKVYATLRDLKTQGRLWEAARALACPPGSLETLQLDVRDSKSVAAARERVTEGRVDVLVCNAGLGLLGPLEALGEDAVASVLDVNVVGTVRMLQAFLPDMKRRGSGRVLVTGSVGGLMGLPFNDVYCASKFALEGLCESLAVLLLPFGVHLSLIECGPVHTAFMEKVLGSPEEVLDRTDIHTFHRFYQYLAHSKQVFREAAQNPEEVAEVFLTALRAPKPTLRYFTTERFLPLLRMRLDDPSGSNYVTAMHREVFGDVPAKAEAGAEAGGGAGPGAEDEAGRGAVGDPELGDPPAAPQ
The experiment in a line: Inhibition of h17β-HSD1 in cell-free assay. The series is classed as biochemical. The following applies: 1 μM; human placental cytosolic fraction, substrate E1 [500 nM], cofactor NADH [500 μM]; read-out: % inh. at 1 μM h17β-HSD1. How it is done:
as §1, §3
The 17β-HSD1 inhibition assay was performed similarly to the h17β-HSD2 test. The human cytosolic enzyme was incubated with NADH [500 μM] while the mouse recombinant enzyme was reacted with NADPH [500 μM].Test compound and a mixture of unlabelled- and [^3H]-E1 (final concentration: 500 nM, 0.15 μCi) were added and mixed for 10 min at 37°C. Further treatment of the samples and HPLC separation was carried out as mentioned above for h17β-HSD2.

As for `Cc1cccc(-c2ccc(C(=O)N(C)c3cccc(C)c3)s2)c1` [Compound 1b], the “% inh. at 1 μM m17β-HSD2” value in series [1] is on record as 42%. As for `COc1cccc(N(C)C(=O)c2ccc(-c3ccccc3OC)s2)c1` [Compound 1d], in series [1], the “% inh. at 1 μM m17β-HSD2” value is recorded as 19%. Still for that read-out and setting: the value for `CN(C(=O)c1ccc(-c2ccccc2O)s1)c1cccc(O)c1` [Compound 1f] was 18%. As for `COc1cccc(N(C)C(=O)c2ccc(-c3cccc(F)c3)s2)c1` [Compound 1h], the “% inh. at 1 μM m17β-HSD2” value in series [1] is “n.i. (n.i.: no inhibition, i.e., inhibition ≤10%)”. Turning to `COc1cccc(N(C)C(=O)c2ccc(-c3ccc(C#N)cc3)s2)c1` [Compound 1i], the “% inh. at 1 μM m17β-HSD2” value in series [1] is recorded as “n.i. (n.i.: no inhibition, i.e., inhibition ≤10%)”. In the case of `Cc1cccc(-c2ccc(C(=O)N(C)c3cccc(C)c3)cc2)c1` [Compound 3a], the inhibition at 1 µM in series [1] stood at 50%. Regarding `COc1ccc(-c2cccc(C(=O)N(C)c3cccc(OC)c3)c2)cc1` [Compound 4b], the “% inh. at 1 μM m17β-HSD2” value in series [1] was found to be 11%. The same measure, in the same setting: the value for `CN(C(=O)c1cccc(-c2cccc(O)c2)c1)c1cccc(O)c1` [Compound 4c] was “n.i. (n.i.: no inhibition, i.e., inhibition ≤10%)”. For `COc1cccc(CN(C)C(=O)c2cccc(-c3cccc(OC)c3)c2)c1` [Compound 4d], in series [1], the “% inh. at 1 μM m17β-HSD2” value is “n.i. (n.i.: no inhibition, i.e., inhibition ≤10%)”. Still for that read-out and setting: to `CN(Cc1cccc(O)c1)C(=O)c1cccc(-c2ccc(O)cc2)c1` [Compound 4f] belongs 22%.

For the compound `CN(C(=O)c1ccc(-c2cccc(O)c2)cc1)c1cccc(O)c1` [Compound 7, 3'-Hydroxy-N-(3-hydroxyphenyl)-N-methyl-[1,1'-biphenyl]-4-carboxamide], the melting point is 168 to 171 °C. Moreover, in series [2], the inhibition at 1 µM is 36%. In addition, the inhibition at 1 µM in series [1] is 42%. Further, in series [3], the inhibition at 1 µM was found to be 15%. In turn, `COc1cccc(N(C)C(=O)c2ccc(-c3ccccc3)cc2)c1` [Compound 8a, N-(3-methoxyphenyl)-N-methyl-[1,1'-biphenyl]-4-carboxamide] had a melting point of 102 to 104 °C. Also, the inhibition at 1 µM in series [2] turned out to be 51%. Moreover, the inhibition at 1 µM in series [1] is 48%. Further, in series [3], the inhibition at 1 µM came to 22%.

`COc1cccc(N(C)C(=O)c2ccc(-c3ccccc3OC)cc2)c1` [Compound 9a, 2'-Methoxy-N-(3-methoxyphenyl)-N-methyl-[1,1'-biphenyl]-4-carboxamide]: the inhibition at 1 µM was 50% in series [2], 33% in series [1] and under 10% in series [3]. The corresponding values for `COc1ccc(N(C)C(=O)c2ccc(-c3cccc(OC)c3)cc2)cc1` [Compound 11a, 3'-Methoxy-N-(4-methoxyphenyl)-N-methyl-[1,1'-biphenyl]-4-carboxamide] are 27%, 58% and under 10%.

The compound `COc1ccc(-c2ccc(C(=O)N(C)c3ccc(OC)cc3)cc2)cc1` [Compound 12a, 4'-Methoxy-N-(4-methoxyphenyl)-N-methyl-[1,1'-biphenyl]-4-carboxamide] yielded a melting point of 129 to 132 °C. The inhibition at 1 µM in series [2] was found to be 19%. The inhibition at 1 µM in series [1] came out at 62%. Besides, in series [3], the inhibition at 1 µM was under 10%. Regarding `COc1cccc(N(C)C(=O)c2ccc(-c3ccc(F)c(F)c3)cc2)c1` [Compound 18a, 3',4'-Difluoro-N-(3-methoxyphenyl)-N-methyl-[1,1'-biphenyl]-4-carboxamide], the values for the inhibition at 1 µM in series [2] and in series [3] were 31% and under 10%, respectively. In the case of `COc1cccc(C(=O)N(C)c2ccc(-c3cccc(OC)c3)cc2)c1` [Compound 24a, 3-Methoxy-N-(3'-methoxy-[1,1'-biphenyl]-4-yl)-N-methylbenzamide], the figures for the inhibition at 1 µM in series [2] and in series [3] were 11% and under 10%, respectively.
